These results are taken from patent US9527819B2, “Pyridazine compounds, compositions and methods” (NORTHWESTERN UNIVERSITY, priority 2004, dated 2016).

The subject of series [1] is BV-2 mouse microglial cells. Put plainly: LPS-stimulated proinflammatory cytokine production in BV-2 microglial cell culture assay. Particulars: for IL-1β production / TNFα production: LPS 100 ng/ml, 16 hrs, levels in cell lysates. It counts as cell-based. The procedure: EL-1/3 and TNFa levels in cell lysates were determined by electro-chemiluminescent detection in a Meso-Scale Discovery (MSD) kit, as per the manufacturer's instructions.
Data are the mean+/− SEM of triplicate determinations.

For series [2], the system named is Aβ-infused mice (hippocampus). Put plainly: Human Aβ infusion mouse model of neuroinflammation and neuronal injury. It counts as in vivo. The text has this:
Briefly, oligomeric […] was infused ICV for 28 days with a micro-osmotic pump. […] At post-operative day 60, mice were perfused and sacrificed, and hippocampal endpoints measured as previously described. Endpoint assays included immunohistochemical detection of activated astrocytes and microglia by glial fibrillary acidic protein (GFAP) and F4/80 staining, measurement of the levels of the pro-inflammatory cytokines IL-1|S, TNFa, and S100B by ELISA, and determination of synaptic damage by analysis of the levels of postsynaptic density protein-95 (PSD-95). […] Cultures were treated with control buffer, C, or activated in the absence, A, or presence, A+188, of 7.5 μMW01-5-188WH. […] Bar=125 μm. […] A schematic of the experimental paradigm is shown. […] Bars=25 μm. […] Quantification of amyloid burden from all mice (n=5/group) was done by determination of the amyloid load. Data are mean±SEM. […] (C) Spontaneous alternation of mice in the Y-maze, a hippocampus-dependent spatial learning task, was measured for 10 days during the 7th and 8th week after the start of Aβ infusion. Data are mean±SEM of n=5 or 10 per group.

A further series addresses hERG (Homo sapiens, UniProt Q12809). The experiment in a line: hERG competition binding assay (3H-astemizole). Particulars: HEK-293 cells stably expressing recombinant hERG channels, probe 3H-astemizole. From the text:
The initial assay is a radioligand binding assay that tests the ability of the test compound to compete with ^3H-astemizole (a reference standard that binds to hERG channels with nM affinity) for binding to recombinant hERG channels stably expressed on human HEK-293 cells. […] This is usual for medium throughout screens but is not recommended in the FDA document and tends to give false positives, as evidenced by the results reported below.
In general terms: Block of hERG is tested as a sign of cardiac risk.

The target in another series is T1, hERG K+ channel (Homo sapiens, UniProt Q12809).
T1 construct: MDS PharmaService (commercial assay service)
T1 sequence (Q12809 whole entry): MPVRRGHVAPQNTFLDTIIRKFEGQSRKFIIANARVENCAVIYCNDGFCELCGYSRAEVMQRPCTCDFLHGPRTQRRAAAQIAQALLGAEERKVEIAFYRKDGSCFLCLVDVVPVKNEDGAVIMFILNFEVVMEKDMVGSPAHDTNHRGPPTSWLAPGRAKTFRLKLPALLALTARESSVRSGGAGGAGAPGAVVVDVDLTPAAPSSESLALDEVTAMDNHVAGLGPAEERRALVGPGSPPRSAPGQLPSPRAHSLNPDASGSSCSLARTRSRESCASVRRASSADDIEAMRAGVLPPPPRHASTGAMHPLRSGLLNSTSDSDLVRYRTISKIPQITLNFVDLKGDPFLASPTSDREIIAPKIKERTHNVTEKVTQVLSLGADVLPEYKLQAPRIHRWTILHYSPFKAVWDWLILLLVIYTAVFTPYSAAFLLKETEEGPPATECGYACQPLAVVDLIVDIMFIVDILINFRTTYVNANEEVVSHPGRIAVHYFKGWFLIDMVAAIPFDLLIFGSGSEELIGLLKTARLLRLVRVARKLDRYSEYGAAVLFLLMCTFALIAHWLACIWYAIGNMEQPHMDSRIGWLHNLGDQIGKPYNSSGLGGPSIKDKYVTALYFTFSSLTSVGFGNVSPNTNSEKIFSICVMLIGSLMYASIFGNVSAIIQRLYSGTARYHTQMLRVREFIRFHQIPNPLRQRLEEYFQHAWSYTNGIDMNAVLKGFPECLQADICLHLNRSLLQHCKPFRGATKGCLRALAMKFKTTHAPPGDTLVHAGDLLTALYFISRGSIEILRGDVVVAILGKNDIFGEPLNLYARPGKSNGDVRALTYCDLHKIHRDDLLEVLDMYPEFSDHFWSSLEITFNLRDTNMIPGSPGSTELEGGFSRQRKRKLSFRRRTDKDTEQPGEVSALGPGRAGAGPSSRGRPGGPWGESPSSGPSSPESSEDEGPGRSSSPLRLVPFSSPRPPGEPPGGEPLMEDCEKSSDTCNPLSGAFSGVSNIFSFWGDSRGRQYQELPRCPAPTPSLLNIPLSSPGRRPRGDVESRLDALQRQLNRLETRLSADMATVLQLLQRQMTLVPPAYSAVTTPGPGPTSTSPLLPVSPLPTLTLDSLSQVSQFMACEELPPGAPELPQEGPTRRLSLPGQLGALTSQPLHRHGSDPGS
Put plainly: hERG channel activity patch clamp inhibition assay. The format is cell-based. Particulars: three concentrations (0.1, 1, 10 μM), whole cell patch clamp. The text has this:
The hERG channel activity inhibition assay provides whole cell electrophysiological data about compound effects on the hERG K^+ channel function. Whole cell patch clamp methodology is generally considered to be the gold-standard determination of ion channel activity, rather than simply measuring channel binding. The standard testing procedure is to use 3 to 5 concentrations of compound at log dilutions with each concentration tested in triplicate (three cells). This allows a balance between achieving a reasonably accurate IC50 measurement against a broad concentration range, and reducing cell attrition that would occur during more protracted experiment durations. After completion of compound dose-response procedures, a known hERG channel inhibitor, such as astemizole, is applied as a positive control.

Another series relates to anesthetized guinea pigs. Put plainly: Cardiac QT interval prolongation assay. Particulars: PO 15 mg/kg. It counts as in vivo, guinea pig. The procedure: The QT interval studies are performed by evaluating compounds for effects on QT interval in Lead II electrocardiograms measured in anesthetized guinea pigs (Hirohashi et al., 1991), one of the species recommended in the FDA white paper. Vehicle or compound is administered orally at 15 mg/kg (dosing volume of 10 ml/kg) to groups of male guinea pigs (weighing 330-350 g), with 5 animals per group. […] Heart rate, arterial blood pressure, and QT intervals are measured at baseline, and at 15, 30, 45, and 60 min after compound administration. Sotalol administered iv at 0.3 mg/kg serves as the positive control compound. The QT intervals are corrected for changes in heart rate using both Bazett's and Fridericia's formulae. Any increase in QT interval values over baseline values exceeding the upper 95% confidence limit of the mean changes at the corresponding time point in the vehicle-treated control group for two consecutive observation times indicates significant QT interval prolongation in the individually treated animals.

A short description of series [3]: Oral administration / brain uptake assay. Particulars: mouse, in vivo.
Experimental: At various times (0-60 min) after administration, mice were sacrificed, blood removed by cardiac puncture, and brains immediately harvested, weighed, quick-frozen in liquid nitrogen, and stored at −80° C. until assayed. Brain tissue was homogenized in 1.5 ml of 0.1 M perchloric acid. After centrifugation (12,000×g for 10 min), the supernatant was neutralized, with 1 M NaOH and then extracted three times with 2 ml of dichloromethane by centrifugation at 3,000×g for 5 min. The organic phases from the three successive extractions were pooled and then vaporated to dryness under reduced pressure. The dried sample was reconstituted in 100 ul of HPLC mobile phase (80% acetonitrile, 0.08% formic acid, 20% H2O), and 20 μl of the reconstituted material was injected into the HPLC system. […] A standard curve of the test compound was prepared by adding increasing concentrations of the compound to brain, tissue from untreated mice, then extracting the brains and performing HPLC analysis as described above. The area under the curve increased linearly with the concentration of the compound over the range of concentrations investigated, with a correlation coefficient of 0.99.
Series [4] is described as follows: Stability in liver microsomes. The format is in vitro ADME, rat. Particulars: 1 μM, NADPH-regenerating system, 37° C. From the text:
The HPLC system (Dionex Corp., Sunnyvale, Calif.) includes a Dionex […] pump, a Phenomenex Luna.
For orientation: Microsomes from liver hold many membrane-bound enzymes, among them those of drug oxidation.

A further series deals with activated glia. Put plainly: Western blots of iNOS, COX-2, apoE production in activated glia cultures. The format is cell-based. Particulars: 7.5 μM, western blot. The procedure:
Cultures were treated with control buffer, C, or activated in the absence, A, or presence, A+188, of 7.5 μMW01-5-188WH. […] Bar=125 μm. […] A schematic of the experimental paradigm is shown. […] Bars=25 μm. […] Quantification of amyloid burden from all mice (n=5/group) was done by determination of the amyloid load. Data are mean±SEM. […] (C) Spontaneous alternation of mice in the Y-maze, a hippocampus-dependent spatial learning task, was measured for 10 days during the 7th and 8th week after the start of Aβ infusion. Data are mean±SEM of n=5 or 10 per group.
A general note: Immunoblotting shows a protein as a band on a membrane.

Chain of hERG (Q12809 whole entry): as above

Take `c1ccc(-c2ccc(N3CCN(c4ncccn4)CC3)nn2)cc1` [MW01-3-183WH, 2-(4-(6-phenylpyridazin-3-yl)piperazin-1-yl)pyrimidine]: in series [1], the IL-1β production entry was “suppressed both IL-1β and TNFα production in a concentration dependent manner”; the TNFα production result was “suppressed both IL-1β and TNFα production in a concentration dependent manner”.

Turning to `Cc1cc(-c2ccccc2)nnc1N1CCN(c2ncccn2)CC1` [MW01-2-151SRM, 4-methyl-6-phenyl-3-(4-pyrimidin-2-ylpiperazin-1-yl)pyridazine], in series [1], the activated glia responses result was “selective suppressor” and the IL-1β production result is reported as “suppress IL-1β in a concentration dependent manner”. In series [2] (mouse, in vivo), the “efficacy in the mouse model of human Aβ-induced neuroinflammation and neuronal injury” value was “showed efficacy”; the “inflammatory response endpoints outside the brain” value was “did not suppress”. Further, the inhibition at 10 µM at hERG was 8%. In addition, on hERG K+ channel, the midpoint of inhibition, the IC50, lay at 9.21 µM. In the series on anesthetized guinea pigs, the heart rate result is listed as “no significant effects” and the mean blood pressure entry is on record as “no significant effects”. In addition, the “cardiac QT interval” value in the series on anesthetized guinea pigs (baseline, 15, 30, 45, 60 min, vs mean+2 SD of vehicle control) is listed as “Neither compound increased”. The oral availability entry in series [3] was “orally available”. Besides, the stability in microsomes entry in series [4] is reported as “demonstrated”.

In turn, `c1ccc(-c2cc(-c3ccncc3)c(N3CCN(c4ncccn4)CC3)nn2)cc1` [MW01-6-189WH, 4-pyridyl-6-phenyl-3-(4-pyrimidin-2-ylpiperazin-1-yl)pyridazine] displayed an IC50 against hERG K+ channel of 4.81 µM.

Turning to `c1ccc(-c2cc(-c3ccccc3)c(N3CCN(c4ncccn4)CC3)nn2)cc1` [MW01-5-188WH, 4,6-diphenyl-3-(4-pyrimidin-2-ylpiperazin-1-yl)pyridazine], in series [1], the IL-1β production entry was “concentration-dependent inhibition” and the TNFα production result is on record as “concentration-dependent inhibition”. The “Accumulation of the NO metabolite, nitrite” value in series [1] (concentrations up to 33 μM) is on record as “not inhibited”. Further, in the series on activated glia, the COX-2 production entry is “does not suppress”, the apoE production entry is recorded as “does not suppress” and the iNOS production entry is recorded as “does not suppress”. For the same compound, the “number of F4/80 positive microglia in the hippocampus” value in series [2] (daily oral […] for 2 weeks) is recorded as “decreased”. Besides, on hERG, the inhibition at 10 µM was 91%. In addition, in the series with anesthetized guinea pigs, the heart rate result is given as “no significant effects” and the mean blood pressure result is “no significant effects”.

Consider `Clc1cc(-c2ccccc2)nnc1N1CCN(c2ncccn2)CC1` [MW01-6-127WH, 4-chloro-6-phenyl-3-(4-pyrimidin-2-ylpiperazin-1-yl)pyridazine], for which, at hERG, the inhibition at 10 µM came to 19%.

What is called inhibition is the change of the read-out against control, counted positive when it falls. A word on the IC50: it is the point on the concentration scale where inhibition reaches its midpoint.
